Patent US4734418A, “Quinazoline compounds and antihypertensives” (priority 1984, dated 1988)
Where two headings read alike, the source gives them in different places.

Tested on: Spontaneously Hypertensive Rats
Experiment: Test 1: antihypertensive effects (systolic tail artery blood pressure) and heart rate in spontaneously hypertensive rats, oral
Type: in vivo, rat (male, SHR)
Conditions: SHR; for change in vivo at 1 mg/kg / change in vivo at 10 mg/kg: Rattus norvegicus; for Change (%) in heart rate: maximum value
Protocol: The antihypertensive effects of the certain compounds of this invention were studied in the following manner.
Among male, spontaneously hypertensive rats (SHRs) of 20 weeks of age or older and 350-430 g heavy all of which had developed hypertension, those having systolic blood pressures of 180 mmHg or higher were used in groups, each of which was constituted of 3-4 of the rats. […] Besides, heart rates were also measured simultaneously. The compounds were each dissolved or suspended in a 0.5% methylcellulose solution and then administered orally.
*All administered orally at a dosage of 1 mg/Kg except for the compounds
**Each percent change in heart rate is indicated by the corresponding

[1] = oral 1 mg/Kg, 1 hour, read-out: Antihypertensive effects, change (%) in blood pressure, 1 hour later
[2] = oral 1 mg/Kg, 3 hours, read-out: Antihypertensive effects, change (%) in blood pressure, 3 hours later
[3] = oral 1 mg/Kg, 6 hours, read-out: Antihypertensive effects, change (%) in blood pressure, 6 hours later
[4] = oral 1 mg/Kg, 24 hours, read-out: Antihypertensive effects, change (%) in blood pressure, 24 hours later

In the case of `CCOC(=O)c1cnc(N2CCN(c3nc(N)c4cc(OC)c(OC)cc4n3)CC2)nc1NC` [Example 55], the change in vivo at 1 mg/kg [1] is reported as -6.5%, the change in vivo at 1 mg/kg [2] is reported as -21.9% and the change in vivo at 1 mg/kg [3] is reported as -29.9%. The change in vivo at 1 mg/kg [4] was -7.5% and the “Change (%) in heart rate” value (oral 1 mg/Kg) was “+7.0%”.

`CCN(CC)C(=O)c1cnc(N2CCN(c3nc(N)c4cc(OC)c(OC)cc4n3)CC2)nc1N` [Example 65] gave a change in vivo at 10 mg/kg (oral 10 mg/Kg, 1 hour, read-out: Antihypertensive effects, change (%) in blood pressure, 1 hour later) of -4.9%, a change in vivo at 10 mg/kg (oral 10 mg/Kg, 3 hours, read-out: Antihypertensive effects, change (%) in blood pressure, 3 hours later) of -18.4% and a change in vivo at 10 mg/kg (oral 10 mg/Kg, 6 hours, read-out: Antihypertensive effects, change (%) in blood pressure, 6 hours later) of -21.4%. For the same compound, the change in vivo at 10 mg/kg (oral 10 mg/Kg, 24 hours, read-out: Antihypertensive effects, change (%) in blood pressure, 24 hours later) was -6.3% and the “Change (%) in heart rate” value (oral 10 mg/Kg) was “+8.9%”.

`COc1cc2nc(N3CCN(c4ncc5c(n4)CN(CCO)C5=O)CC3)nc(N)c2cc1OC` [Example 88] gave a change in vivo at 1 mg/kg [1] of 0.5%, a change in vivo at 1 mg/kg [2] of -4.4% and a change in vivo at 1 mg/kg [3] of -6.9%. For the same compound, the change in vivo at 1 mg/kg [4] was -2% and the “Change (%) in heart rate” value (oral 1 mg/Kg) was “+5.8%”.

`COc1cc2nc(N3CCN(c4ncc(C(=O)NCC(F)(F)F)c(C)n4)CC3)nc(N)c2cc1OC` [Example 48] gave a change in vivo at 1 mg/kg [1] of -4.5%, a change in vivo at 1 mg/kg [2] of -9% and a change in vivo at 1 mg/kg [3] of -15%. The change in vivo at 1 mg/kg [4] was -4% and the “Change (%) in heart rate” value (oral 1 mg/Kg) was “+6.9%”.

Work on `CCOC(=O)c1cc2nc(N3CCN(c4nc(N)c5cc(OC)c(OC)cc5n4)CC3)ncc2c(=O)n1CC` [Example 18] yielded a change in vivo at 1 mg/kg [1] of 0%, a change in vivo at 1 mg/kg [2] of -3.9% and a change in vivo at 1 mg/kg [3] of -9.8%. For the same compound, the change in vivo at 1 mg/kg [4] was -3.9% and the “Change (%) in heart rate” value (oral 1 mg/Kg) was “+11.1%”.

In the case of `COc1cc2nc(N3CCN(c4ncc5c(n4)N(C)CCN(C)C5=O)CC3)nc(N)c2cc1OC` [Example 76], the change in vivo at 1 mg/kg [1] is reported as 0%, the change in vivo at 1 mg/kg [2] is reported as -3.8% and the change in vivo at 1 mg/kg [3] is reported as -7.2%. The change in vivo at 1 mg/kg [4] was -9.6% and the “Change (%) in heart rate” value (oral 1 mg/Kg) was “+2.9%”.

With `CNC(=O)c1cnc(N2CCN(c3nc(N)c4cc(OC)c(OC)cc4n3)CC2)nc1NC` [Example 68] the change in vivo at 1 mg/kg [1] was 1.4%, the change in vivo at 1 mg/kg [2] was -19.6% and the change in vivo at 1 mg/kg [3] was -28.2%. The change in vivo at 1 mg/kg [4] was -11.5% and the “Change (%) in heart rate” value (oral 1 mg/Kg) was “+5.2%”.

`COc1cc2nc(N3CCN(c4nc(N)c5cc(OC)c(OC)cc5n4)CC3)nc(N)c2cc1OC` [Example 72] showed a change in vivo at 1 mg/kg [1] of 2.9%, a change in vivo at 1 mg/kg [2] of -2% and a change in vivo at 1 mg/kg [3] of -2.5%. For the same compound, the change in vivo at 1 mg/kg [4] was -2.9% and the “Change (%) in heart rate” value (oral 1 mg/Kg) was “+8.6%”.

`COc1cc2nc(N3CCN(c4ncc(C#N)c(O)n4)CC3)nc(N)c2cc1OC` [Example 51] showed a change in vivo at 1 mg/kg [1] of 8.6%, a change in vivo at 1 mg/kg [2] of 0% and a change in vivo at 1 mg/kg [3] of -4.1%. The change in vivo at 1 mg/kg [4] was -2.5% and the “Change (%) in heart rate” value (oral 1 mg/Kg) was “+3.0%”.

With `COc1cc2nc(N3CCN(c4ncc(C(C)=O)c(C)n4)CC3)nc(N)c2cc1OC` [Example 36] the change in vivo at 1 mg/kg [1] was -14.6%, the change in vivo at 1 mg/kg [2] was -16.5% and the change in vivo at 1 mg/kg [3] was -15%. For the same compound, the change in vivo at 1 mg/kg [4] was -2.4% and the “Change (%) in heart rate” value (oral 1 mg/Kg) was “+9.5%”.

`COc1cc2nc(N3CCN(c4ncc(C(=O)N5CCCC5)c(C)n4)CC3)nc(N)c2cc1OC` [Example 49] showed a change in vivo at 1 mg/kg [1] of -4.5%, a change in vivo at 1 mg/kg [2] of -10.6% and a change in vivo at 1 mg/kg [3] of -13.1%. For the same compound, the change in vivo at 1 mg/kg [4] was -7.5% and the “Change (%) in heart rate” value (oral 1 mg/Kg) was “+6.3%”.

With `CCn1cc(C=O)c2nc(N3CCN(c4nc(N)c5cc(OC)c(OC)cc5n4)CC3)ncc2c1=O` [Example 14] the change in vivo at 1 mg/kg [1] was -1.9%, the change in vivo at 1 mg/kg [2] was -4.8% and the change in vivo at 1 mg/kg [3] was -13.9%. The change in vivo at 1 mg/kg [4] was -11% and the “Change (%) in heart rate” value (oral 1 mg/Kg) was “+7.3%”.

`CCn1cc(C)c2nc(N3CCN(c4nc(N)c5cc(OC)c(OC)cc5n4)CC3)ncc2c1=O` [Example 12] gave a change in vivo at 1 mg/kg [1] of -11%, a change in vivo at 1 mg/kg [2] of -14.3% and a change in vivo at 1 mg/kg [3] of -19%. The change in vivo at 1 mg/kg [4] was -6.7% and the “Change (%) in heart rate” value (oral 1 mg/Kg) was “+7.0%”.

Compound `CCn1ccc2nc(N3CCN(c4ncc5ccccc5n4)CC3)ncc2c1=O` [Example 96, 2-(4-(5,6-Dihydro-6-ethyl-5-oxopyrido[4,3-d]pyrimidine-2-yl)piperazino)quinazoline] has a change in vivo at 1 mg/kg [1] of 3%, a change in vivo at 1 mg/kg [2] of -2.5% and a change in vivo at 1 mg/kg [3] of -8%. The change in vivo at 1 mg/kg [4] was -6.5% and the “Change (%) in heart rate” value (oral 1 mg/Kg) was “+2.9%”.

`CCOC(=O)c1cnc(N2CCN(c3nc(N)c4cc(OC)c(OC)cc4n3)CC2)nc1O` [Example 50] gave a change in vivo at 1 mg/kg [1] of -1.5%, a change in vivo at 1 mg/kg [3] of -14.6% and a change in vivo at 1 mg/kg [4] of -6.3%. For the same compound, the “Change (%) in heart rate” value (oral 1 mg/Kg) was “+2.9%”.
